Data: article PMC11748363, “Antimicrobial and Antiproliferative Properties of 2‐Phenyl‐N‐(Pyridin‐2‐yl)acetamides” (Chemical Biology & Drug Design, 2025)
pIC50: −log10 of the molar value. Converted amounts (≈) assume the structure as drawn. Where two headings read alike, the source gives them in different places.

Experiments:
[1] = test system: Mycobacterium tuberculosis H37Ra; assay: Antimycobacterial microdilution broth MIC (resazurin), Mtb H37Ra; type: cell-based; settings: for MIC: Mycobacterium tuberculosis, H37RA, read-out: MIC Mtb H37Ra; for SI (selectivity index): SI = HepG2 IC50 (μM)/MIC MtbH37Ra (μM), calculated for compounds with MIC ≤ 31.25 μg/mL
[2] = test system: Mycolicibacterium smegmatis DSM 43465; assay: Antimycobacterial microdilution broth MIC (resazurin), M. smegmatis; type: cell-based; settings: DSM43465, read-out: MIC M. smegmatis
[3] = test system: Mycolicibacterium aurum DSM 43999; assay: Antimycobacterial microdilution broth MIC (resazurin), M. aurum; type: cell-based; settings: DSM43999, read-out: MIC M. aurum
HepG2 cell line = assay: Cytotoxicity CellTiter 96, HepG2; type: cell-based, human; settings: Homo sapiens, HepG2, 24 h, 24 h incubation; ^c compound precipitated in the testing medium; ^d over the limit of tested concentrations
[4] = test system: Staphylococcus aureus CCM 4223, ATCC 29213; assay: Antibacterial microdilution broth MIC, SA; type: cell-based; settings: Staphylococcus aureus
[5] = test system: Staphylococcus aureus subsp. aureus CCM 4750, ATCC 43300 (MRSA); assay: Antibacterial microdilution broth MIC, MRSA; type: cell-based; settings: Staphylococcus aureus
[6] = test system: Staphylococcus epidermidis CCM 4418, ATCC 12228; assay: Antibacterial microdilution broth MIC, SE; type: cell-based
[7] = test system: Enterococcus faecalis CCM 4224, ATCC 29212; assay: Antibacterial microdilution broth MIC, EF; type: cell-based
[8] = test system: Escherichia coli CCM 3954, ATCC 25922; assay: Antibacterial microdilution broth MIC, EC; type: cell-based
[9] = test system: Acinetobacter baumannii DSM 30007, ATCC 19606; assay: Antibacterial microdilution broth MIC, ACI; type: cell-based
[10] = test system: Pseudomonas aeruginosa CCM 3955, ATCC 27853; assay: Antibacterial microdilution broth MIC, PA; type: cell-based
[11] = test system: Candida albicans CCM 8320, ATCC 24433; assay: Antifungal microdilution broth MIC, CA
[12] = test system: Candida krusei CCM 8271, ATCC 6258; assay: Antifungal microdilution broth MIC, CK; settings: Pichia kudriavzevii
[13] = test system: Candida parapsilosis CCM 8260, ATCC 22019; assay: Antifungal microdilution broth MIC, CP; settings: Lodderomyces parapsilosis
[14] = test system: Candida tropicalis CCM 8264, ATCC 750; assay: Antifungal microdilution broth MIC, CT
[15] = test system: Aspergillus fumigatus ATCC 204305; assay: Antifungal microdilution broth MIC, AF
[16] = test system: Lichtheimia corymbifera CCM 8077; assay: Antifungal microdilution broth MIC, LC
[17] = test system: Trichophyton interdigitale CCM 8377, ATCC 9533; assay: Antifungal microdilution broth MIC, TI; settings: Trichophyton interdigitale
[18] = test system: Aspergillus flavus CCM 8363; assay: Antifungal microdilution broth MIC, AFla
[19] = test system: Klebsiella pneumoniae CCM 4415, ATCC 10031; assay: Antibacterial microdilution broth MIC, KP
[20] = ATCC204305, 24 h, read-out: MIC AF 24h
[21] = ATCC204305, 48 h, read-out: MIC AF 48h
[22] = CCM8077, 24 h, read-out: MIC LC 24h
[23] = CCM8077, 48 h, read-out: MIC LC 48h
[24] = CCM8363, 24 h, read-out: MIC AFla 24h
[25] = CCM8363, 48 h, read-out: MIC AFla 48h

Row | Structure (SMILES) | MIC ([1]; Calculated from MIC (μg/mL)) | MIC [1] | SI (selectivity index) [1] | MIC [2] | MIC [3] | pIC50 (HepG2 cell line) | MIC ([4]; 24 h, read-out: MIC SA 24h) | MIC ([4]; 48 h, read-out: MIC SA 48h) | MIC ([5]; 24 h, read-out: MIC MRSA 24h) | MIC ([5]; 48 h, read-out: MIC MRSA 48h) | MIC ([6]; 24 h, read-out: MIC SE 24h) | MIC ([6]; 48 h, read-out: MIC SE 48h) | MIC ([7]; 24 h, read-out: MIC EF 24h) | MIC ([7]; 48 h, read-out: MIC EF 48h) | MIC ([8]; 24 h, read-out: MIC EC 24h) | MIC ([8]; 48 h, read-out: MIC EC 48h) | MIC ([9]; 24 h, read-out: MIC ACI 24h) | MIC ([9]; 48 h, read-out: MIC ACI 48h) | MIC ([10]; 24 h, read-out: MIC PA 24h) | MIC ([10]; 48 h, read-out: MIC PA 48h) | also measured
1 | COc1cccc(CC(=O)Nc2ccc(Cl)cn2)c1 [Compound 8, 2-(3-methoxyphenyl)-N-(5-chloropyridin-2-yl)acetamide] | 113 µM | 31.2 µg/mL | 1.4 | > 500 µg/mL | > 500 µg/mL | 3.80 | 500 µM (≈ 138 µg/mL) | > 500 µM | > 500 µM | > 500 µM | 250 µM (≈ 69.2 µg/mL) | > 500 µM | > 500 µM | > 500 µM | > 500 µM | > 500 µM | > 500 µM | > 500 µM | > 500 µM | > 500 µM | MIC ([11]; 24 h, read-out: MIC CA 24h): > 500 µM; MIC ([11]; 48 h, read-out: MIC CA 48h): > 500 µM; MIC ([12]; 24 h, read-out: MIC CK 24h): 500 µM (≈ 138 µg/mL); MIC ([12]; 48 h, read-out: MIC CK 48h): 500 µM (≈ 138 µg/mL); MIC ([13]; 24 h, read-out: MIC CP 24h): > 500 µM; MIC ([13]; 48 h, read-out: MIC CP 48h): > 500 µM; MIC ([14]; 24 h, read-out: MIC CT 24h): > 500 µM; MIC ([14]; 48 h, read-out: MIC CT 48h): > 500 µM; MIC [15, 20]: > 500 µM; MIC [15, 21]: > 500 µM; MIC [16, 22]: 500 µM (≈ 138 µg/mL); MIC [16, 23]: 500 µM (≈ 138 µg/mL); MIC ([17]; 72 h, read-out: MIC TI 72h): 500 µM (≈ 138 µg/mL); MIC ([17]; 120 h, read-out: MIC TI 120h): 500 µM (≈ 138 µg/mL); MIC [18, 24]: 500 µM (≈ 138 µg/mL); MIC [18, 25]: 500 µM (≈ 138 µg/mL); MIC KP 24h [19]: > 500 µM; MIC KP 48h [19]: > 500 µM
2 | O=C(Cc1ccccc1C(F)(F)F)Nc1ccc(Cl)cn1 [Compound 23] | 99.3 µM | 31.2 µg/mL | 2.0 | > 500 µg/mL | > 500 µg/mL | 3.70 | > 500 µM | > 500 µM | > 500 µM | > 500 µM | > 500 µM | > 500 µM | > 500 µM | > 500 µM | > 500 µM | > 500 µM | > 500 µM | > 500 µM | > 500 µM | > 500 µM | MIC ([11]; 24 h, read-out: MIC CA 24h): > 500 µM; MIC ([11]; 48 h, read-out: MIC CA 48h): > 500 µM; MIC ([12]; 24 h, read-out: MIC CK 24h): > 500 µM; MIC ([12]; 48 h, read-out: MIC CK 48h): > 500 µM; MIC ([13]; 24 h, read-out: MIC CP 24h): > 500 µM; MIC ([13]; 48 h, read-out: MIC CP 48h): > 500 µM; MIC ([14]; 24 h, read-out: MIC CT 24h): > 500 µM; MIC ([14]; 48 h, read-out: MIC CT 48h): > 500 µM; MIC [15, 20]: > 500 µM; MIC [15, 21]: > 500 µM; MIC [16, 22]: > 500 µM; MIC [16, 23]: > 500 µM; MIC ([17]; 72 h, read-out: MIC TI 72h): 500 µM (≈ 157 µg/mL); MIC ([17]; 120 h, read-out: MIC TI 120h): 500 µM (≈ 157 µg/mL); MIC [18, 24]: > 500 µM; MIC [18, 25]: > 500 µM; MIC KP 24h [19]: > 500 µM; MIC KP 48h [19]: > 500 µM
3 | O=C(Cc1ccccc1)Nc1cccc(Cl)n1 [Compound 3] | 127 µM | 31.2 µg/mL | 3.42 | 15.6 µg/mL (≈ 63.3 µM) | 62.5 µg/mL (≈ 253 µM) | 3.36 | 500 µM (≈ 123 µg/mL) | 500 µM (≈ 123 µg/mL) | > 500 µM | > 500 µM | > 500 µM | > 500 µM | > 500 µM | > 500 µM | > 500 µM | > 500 µM | > 500 µM | > 500 µM | > 500 µM | > 500 µM | MIC ([11]; 24 h, read-out: MIC CA 24h): > 500 µM; MIC ([11]; 48 h, read-out: MIC CA 48h): > 500 µM; MIC ([12]; 24 h, read-out: MIC CK 24h): 250 µM (≈ 61.7 µg/mL); MIC ([12]; 48 h, read-out: MIC CK 48h): 500 µM (≈ 123 µg/mL); MIC ([13]; 24 h, read-out: MIC CP 24h): 500 µM (≈ 123 µg/mL); MIC ([13]; 48 h, read-out: MIC CP 48h): > 500 µM; MIC ([14]; 24 h, read-out: MIC CT 24h): > 500 µM; MIC ([14]; 48 h, read-out: MIC CT 48h): > 500 µM; MIC [15, 20]: > 500 µM; MIC [15, 21]: > 500 µM; MIC [16, 22]: > 500 µM; MIC [16, 23]: > 500 µM; MIC ([17]; 72 h, read-out: MIC TI 72h): 125 µM (≈ 30.8 µg/mL); MIC ([17]; 120 h, read-out: MIC TI 120h): 250 µM (≈ 61.7 µg/mL); MIC [18, 24]: > 500 µM; MIC [18, 25]: > 500 µM; MIC KP 24h [19]: > 500 µM; MIC KP 48h [19]: > 500 µM
4 | O=C(Cc1ccccc1Cl)Nc1cccc(Cl)n1 [Compound 15, 2-(2-chlorophenyl)-N-(6-chloropyridin-2-yl)acetamide] | 111 µM | 31.2 µg/mL | > 0.9 | > 500 µg/mL | 250 µg/mL (≈ 889 µM) | < 4.00 | > 500 µM | > 500 µM | > 500 µM | > 500 µM | > 500 µM | > 500 µM | > 500 µM | > 500 µM | > 500 µM | > 500 µM | > 500 µM | > 500 µM | > 500 µM | > 500 µM | MIC ([11]; 24 h, read-out: MIC CA 24h): > 500 µM; MIC ([11]; 48 h, read-out: MIC CA 48h): > 500 µM; MIC ([12]; 24 h, read-out: MIC CK 24h): 500 µM (≈ 141 µg/mL); MIC ([12]; 48 h, read-out: MIC CK 48h): 500 µM (≈ 141 µg/mL); MIC ([13]; 24 h, read-out: MIC CP 24h): > 500 µM; MIC ([13]; 48 h, read-out: MIC CP 48h): > 500 µM; MIC ([14]; 24 h, read-out: MIC CT 24h): > 500 µM; MIC ([14]; 48 h, read-out: MIC CT 48h): > 500 µM; MIC [15, 20]: > 500 µM; MIC [15, 21]: > 500 µM; MIC [16, 22]: > 500 µM; MIC [16, 23]: > 500 µM; MIC ([17]; 72 h, read-out: MIC TI 72h): 500 µM (≈ 141 µg/mL); MIC ([17]; 120 h, read-out: MIC TI 120h): 500 µM (≈ 141 µg/mL); MIC [18, 24]: > 500 µM; MIC [18, 25]: > 500 µM; MIC KP 24h [19]: > 500 µM; MIC KP 48h [19]: > 500 µM
